Laboratory results: publication PMC10076643, “Design, synthesis and anticancer activity studies of 3-(coumarin-3-yl)-acrolein derivatives: Evidenced by integrating network pharmacology and vitro assay” (Frontiers in Pharmacology, 2023)

Key:
[1] = test system: A549 (human lung cancer cell line); experiment: MTT antiproliferative assay, A549; type: cell-based; details: Homo sapiens, A549; MTT, 72 h
From the text: (§1) All the synthesized compounds were screened for in vitro antiproliferative activity against four human cancer cell lines A549 (human lung cancer cell line), KB (human oral epidermoid carcinoma cell line), Hela (human cervical carcinoma cell line), MCF-7 (human breast cancer cell line) and two human normal cell lines HUVEC (human umbilical vein endothelial cell) and LO2 (human normal hepatocytes) through the 3-(4,5-dimethyl-2-thiazolyl)-2,5-diphenyl-2-H-tetrazolium bromide (MTT) assay.
(§2) Non-small-cell lung cancer (A549), oral epidermoid carcinoma (KB), cervical cancer (Hela) and breast cancer (MCF-7) cells were purchased from the American Type Culture Collection (ATCC, America). Human umbilical vein endothelial cell (HUVEC) and human normal hepatocytes (LO2) cells were provided by Guangzhou Medical University (Guangzhou, China). A549 and KB cells were cultured in RMPI-1640 medium (Gibco, America). Hela, MCF-7 and LO2 cells were cultured in DMEM medium (Gibco, America). HUVEC cells were cultured in Ham’s F-12K medium (Gibco, America). All the mediums were supplemented with 10% fetal bovine serum (FBS) (BI, State of Israel), 100 U/mL penicillin and 100 μg/mL streptomycin (Gibco, America), and all the cells were incubated in a sterile incubator at 37°C in an environment of 5% CO2. The tested compounds were dissolved in dimethyl sulfoxide (DMSO) at a concentration of 10 mM, and then diluted into different concentration of solutions by culture medium. The final concentration of DMSO was <0.01% (v/v) in all drug treatment groups to avoid the toxicity in the biological system. Untreated cells were used as a blank control and 5-fluorouracil treated cells were used as a positive control.
(§3) The incubated tumor cells were planted into 96-well plates (4×10^3 cells/well). After 24 h, the cells were adherent to the wall and treated with the compound 6e in different concentrations (0.78, 1.56, 3.12, 6.25, 12.50, 25.00, and 50.00 μM) for 72 h. Afterwards, the medium was supplemented with 10 µL MTT solution. After 4 h, the culture medium was removed and 100 µL DMSO was added. The absorbance was determined at the wavelength of 540 nm and 655 nm using a microplate reader (BioTek Epoch, America). The results were collected from three independent experiments. The IC50 was then calculated by using GraphPad Prism Software (version 7.0) and non-linear regression (curve fit).

[2] = test system: KB (human oral epidermoid carcinoma cell line); experiment: MTT antiproliferative assay, KB; type: cell-based
From the text: as §1, §2, §3

[3] = test system: MCF-7 (human breast cancer cell line); experiment: MTT antiproliferative assay, MCF-7; type: cell-based; details: MCF7, 72 h
From the text: as §1, §2, §3

[4] = test system: HUVEC (human umbilical vein endothelial cell); experiment: MTT antiproliferative assay, HUVEC normal cells; type: cell-based; details: 72 h
From the text: as §1, §2, §3

[5] = test system: LO2 (human normal hepatocytes); experiment: MTT antiproliferative assay, LO2 normal cells; type: cell-based; details: Hepatocyte, 72 h
From the text: as §1, §2, §3

KB cells [6] = experiment: Scratch wound healing assay; type: cell-based, human; details: different concentrations (0.5 IC50, IC50, 2 IC50), after 24 h
Experimental: (§4) Wound healing assay and transwell assay were performed to investigate the effect of compound 6e on the migratory capability of KB cells.
In vitro wound-healing assay, KB cells (5 × 10^5 cells/well) were seeded into 6-well plates and incubated at 37 °C in humidified atmosphere with 5% CO2 for 12 h. As the cells were adherent to the wall and the degree of fusion reached more than 90%, cell layers were gently scratched with a 200 μL pipette tip. […] Images of cells were photographed with the inverted fluorescence microscope (Leica DMi8, Germany) at 0 h and 24 h. The areas that were not covered by cells in the scratch wound were quantified by using ImageJ. Then the values obtained in each group were expressed by the percentage of wound closure of cells in the control group. The experiments were performed in triplicate.

KB cells [7] = experiment: Transwell migration assay; type: cell-based, human; details: 2 IC50, 48 h
Experimental: as §4
Initially, KB cells (5×10^4 cells/well) were suspended in 200 μL of the FBS-free medium. Each upper chamber contained the vehicle and various concentrations of compound 6e (0.5 IC50, IC50, 2 IC50). Each lower chamber was filled with 600 μL of medium containing 10% FBS. After incubation at 37°C for 48 h, the cells upon the transwell membrane were removed with a cotton tip. The cells trapped on the bottom side of the membrane were fixed with methanol for 1 h and stained with crystal violet solution for 2 h. Subsequently, the chambers thoroughly washed with PBS. The migrated cells were then imaged with the inverted fluorescence microscope (Leica DMi8, Germany) and counted with ImageJ software for three independent fields randomly.

[8] = test system: AKT phosphorylation in KB cells; experiment: Western blot, pAKT/AKT; type: cell-based, human; details: increased concentration (0.40, 0.80, 1.60 μM), 24 h
From the text: (§5) Based on the results of network pharmacology, the key proteins related to PI3K/AKT pathway were detected by Western blotting to explore the antitumor mechanism of compound 6e. […] Such an inconsistency might be due to a compensatory increase in PI3K level after the reduction of AKT phosphorylation level. Additionally, the active-caspase 3 protein, anti-apoptosis protein Bcl-2 and pro-apoptosis protein Bax were further analyzed. Caspase-3 normally exists in the cytoplasm as zymogen. During the early stage of apoptosis, caspase-3 (32 KD) is cleaved to the active 17-kD caspase-3 fragment, which is responsible for morphological and biochemical changes in apoptosis. Bcl-2 and Bax are the […] located on the mitochondrial membrane and capable of controlling the MMP (ΔΨm) and the activation of caspase cascade.
(§6) A total of 4 × 10^5 KB cells were seeded into 6-well and grown for overnight. Then the cells adherent to the wall were treated with compound 6e in different concentrations (0, 0.40, 0.80, 1.60 μM) for 24 h. After that, cells were collected, SDS lysate, 100X protease inhibitor and 50X phosphorylation inhibitor were added in a certain proportion to lyse the cells. The protein content was determined by BCA reagent (Beyotime, China) according to the standard curve. […]

PI3K in KB cells = experiment: Western blot, PI3K; type: cell-based, human; details: 0.40, 0.80, 1.60 μM, 24 h
From the text: as §5, §6

Bax in KB cells = experiment: Western blot, Bax; type: cell-based, human; details: 0.40 μM, 24 h
From the text: as §5, §6

In the case of `O=CC=C(Cl)c1cc2ccc(OCc3ccccc3)cc2oc1=O` [Compound 6e, 3-(7-(Benzyloxy)-2-oxo-2H-chromen-3-yl)-3-chloroacrylaldehyde], the IC50 [1] is reported as 7.4 ± 0.2 µM, the IC50 ([2]; Homo sapiens, MTT, 72 h) is reported as 0.39 ± 0.07 µM and the “antiproliferative activity higher than 5-FU” value ([2]; KB cells, relative to 5-FU) is reported as 15 fold. For the same compound, the “IC50 against KB cells lower than that of HUVECs (selectivity)” value ([2]; KB vs HUVEC) was 65 fold, the “IC50 against KB cells lower than that of LO2 cells (selectivity)” value ([2]; KB vs LO2) was 129 fold and the IC50 [3] was 14.8 ± 0.28 µM. For the same compound, the IC50 [4] was 25.26 ± 0.2 µM, the IC50 [5] was 50.13 ± 0.03 µM and the “scratched gaps of KB cells” value (KB cells [6]) was “wider than that of the control group and 5-FU group”. For the same compound, the “number of migration cells reduced compared with the control group” value (KB cells [7]) was “approximately 93%”, the pAKT/AKT ratios [8] was “remarkably decreased” and the “relative PI3K level among the control and treatment groups” value (PI3K in KB cells) was “not significantly different”. The “expression of Bax compared with the control group” value (Bax in KB cells) was “upregulated” and the melting point was 223 to 225 °C.
